Experimental data published in patent publication US9458153B2, “Dihydroquinolizinones for the treatment and prophylaxis of hepatitis B virus infection” (Hoffmann-La Roche Inc., priority 2014, dated 2016).

How the values were obtained:
HBsAg = HBsAg assay (chemiluminescence immunoassay of secreted HBsAg in HepG2.2.15 culture supernatant); type: cell-based, HBV; details: HepG2.2.15 cells, CLIA kit
Procedure, shortened: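 HepG2.2.15 cells, which constitutively express HBV, were seeded in duplicate and treated with three-fold serial compound dilutions at 1% DMSO final. Secreted HBsAg in culture supernatant was measured semi-quantitatively by chemiluminescence immunoassay. IC50 was extrapolated from dose-response curves.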

HBV DNA = HBV DNA assay (real-time qPCR/TaqMan of extracellular HBV DNA copy number, HepG2.2.15 cells); type: cell-based; details: Hepatitis B virus, HepG2.2.15, 144 h, Anti HBV DNA production activity in HepG2.2.15 cells; supernatant collected six days after initial administration
Procedure: HepG2.2.15 cells (Acs et al. Proc Natl Acad Sci USA, 84, (1987), 4641-4), a constitutively HBV-expressing cell line were cultured in DMEM+Glutamax-I medium (Invitrogen, Carlsbad, Calif., USA), supplemented with 10% fetal bovine serum (Invitrogen) and G418 (Invitrogen) at a final concentration of 200 mg/L and maintained in 5% CO2 at 37° C.
The assay employs real-time qPCR (TaqMan) to directly measure extracellular HBV DNA copy number. HepG2.2.15 cells were plated in 96-well microtiter plates. Only the interior wells were utilized to reduce “edge effects” observed during cell culture, the exterior wells were filled with complete medium to help minimize sample evaporation. On the following day, the HepG2.2.15 cells were washed and the medium was replaced with complete medium containing various concentrations of a test compound in triplicate. 3TC was used as the positive control, while media alone was added to cells as a negative control (virus control, VC). Three days later, the culture medium was replaced with fresh medium containing the appropriately diluted drug. Six days following the initial administration of the test compound, the cell culture supernatant was collected, treated with pronase and then used in a real-time qPCR/TaqMan assay to determine HBV DNA copy numbers. Antiviral activity was calculated from the reduction in HBV DNA levels (IC50).
The compounds of the present invention were tested for their capacity to inhibit HBV DNA as described herein.

[1] = HBsAg secretion reduced by 50% vs no drug control

Row | Compound | IC50 (HBsAg; [1]) | IC50 (HBV DNA) | IC50 (HBsAg; Hepatitis B virus, HepG2.2.15, HBsAg secretion reduced by 50% vs no drug control)
1 | COCCOc1cc2c(cc1Cl)-c1cc(=O)c(C(=O)O)cn1C(C(C)C)C2 (single isomer, unassigned; (+)) [Example 108, (+)-10-chloro-6-isopropyl-9-(2-methoxyethoxy)-2-oxo-6,7-dihydrobenzo[a]quinolizine-3-carboxylic acid] | 3 nM | 2 nM | –
2 | COCCCOc1cc2c(cc1Cl)-c1cc(=O)c(C(=O)O)cn1C(C(C)C)C2 (single isomer, unassigned; (+)) [Example 121, (+)-10-chloro-6-isopropyl-9-(3-methoxypropoxy)-2-oxo-6,7-dihydrobenzo[a]quinolizine-3-carboxylic acid] | 2 nM | < 0.1 nM | –
3 | COCCCOc1cc2c(cc1OC)-c1cc(=O)c(C(=O)O)cn1C(C(C)C)C2 (single isomer, unassigned; (+)) [Example 124, (+)-10-methoxy-6-isopropyl-9-(3-methoxypropoxy)-2-oxo-6,7-dihydrobenzo[a]quinolizine-3-carboxylic acid] | 2 nM | < 0.1 nM | –
4 | COc1cc2c(cc1OCCN1CCOCC1)CC(C(C)(C)C)n1cc(C(=O)O)c(=O)cc1-2 (single isomer, unassigned; (+)) [Example 190, (+)-6-tert-butyl-10-methoxy-9-(2-morpholinoethoxy)-2-oxo-6,7-dihydrobenzo[a]quinolizine-3-carboxylic acid] | 6 nM | 2 nM | –
5 | COCCCOc1cc2c(cc1Cl)-c1cc(=O)c(C(=O)O)cn1C(C1(C)CC1)C2 (single isomer, unassigned; (+)) [Example 206, (+)-10-chloro-9-(3-methoxypropoxy)-6-(1-methylcyclopropyl)-2-oxo-6,7-dihydrobenzo[a]quinolizine-3-carboxylic acid] | 1 nM | 0.1 nM | –
6 | COCCCOc1cc2c(cc1OC)-c1cc(=O)c(C(=O)O)cn1C(C1(C)CC1)C2 (single isomer, unassigned; (+)) [Example 209, (+)-10-methoxy-9-(3-methoxypropoxy)-6-(1-methylcyclopropyl)-2-oxo-6,7-dihydrobenzo[a]quinolizine-3-carboxylic acid] | 1 nM | 0.3 nM | –
7 | CCOc1cc2c(cc1Cl)-c1cc(=O)c(C(=O)O)cn1C(CC)C2 (single isomer, unassigned; (-)) [Example 119, (−)-10-chloro-9-ethoxy-6-ethyl-2-oxo-6,7-dihydrobenzo[a]quinolizine-3-carboxylic acid] | 330 nM | 2 nM | –
8 | CCOc1cc2c(cc1OCC)-c1cc(=O)c(C(=O)O)cn1C(CC)C2 (stereo not shown) [Example 5, 9,10-diethoxy-6-ethyl-2-oxo-6,7-dihydrobenzo[a]quinolizine-3-carboxylic acid] | 18 nM | 9 nM | –
9 | CCC1Cc2cc(OCC3CC3)c(OC)cc2-c2cc(=O)c(C(=O)O)cn21 (stereo not shown) [Example 30, 9-(cyclopropylmethoxy)-6-ethyl-10-methoxy-2-oxo-6,7-dihydrobenzo[a]quinolizine-3-carboxylic acid] | 24 nM | 2 nM | –
10 | CCC1Cc2cc(OCC(C)C)c(OC)cc2-c2cc(=O)c(C(=O)O)cn21 (stereo not shown) [Example 33, 6-ethyl-9-isobutoxy-10-methoxy-2-oxo-6,7-dihydrobenzo[a]quinolizine-3-carboxylic acid] | 8 nM | 3 nM | –
11 | CCOc1cc2c(cc1OCC)-c1cc(=O)c(C(=O)O)cn1CC2 [Example 76, 9,10-diethoxy-2-oxo-6,7-dihydrobenzo[a]quinolizine-3-carboxylic acid] | – | 130 nM | 350 nM
